Laboratory results: PubChem BioAssay (NCI)
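In this assay, cells in 96-well plates receive the compound at five concentrations for 48 hours. Endpoints are linearly interpolated between the surrounding concentrations. At the GI50, growth is halved. TGI: concentration producing complete growth inhibition.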

Assays:
Experiment in all cases: NCI anticancer screen, dose series, 48 h; in the data active = GI50 below about 0.43 µM; inactive = the rest
[1] = tested on: SK-MEL-5 melanoma
[2] = tested on: NCI-H23 lung
[3] = tested on: SN12C renal
[4] = tested on: SR leukemia
[5] = tested on: UACC-257 melanoma
[6] = tested on: RPMI-8226 leukemia
[7] = tested on: MCF7 breast
[8] = tested on: TK-10 renal
[9] = tested on: OVCAR-8 ovarian
[10] = tested on: EKVX NSCLC
[11] = tested on: SK-MEL-28 melanoma
[12] = tested on: UACC-62 melanoma
[13] = tested on: MALME-3M melanoma
[14] = tested on: HCT-15 colon
[15] = tested on: NCI-H460 lung
[16] = tested on: OVCAR-3 ovarian
[17] = tested on: DU-145 prostate
[18] = tested on: U251 CNS
[19] = tested on: LOX IMVI melanoma
[20] = tested on: HT29 colon
[21] = tested on: HCT-116 colon
[22] = tested on: HOP-62 NSCLC
[23] = tested on: SK-OV-3 ovarian
[24] = tested on: A549 NSCLC
[25] = tested on: SNB-19 CNS
[26] = tested on: IGROV1 ovarian
[27] = tested on: OVCAR-5 ovarian
[28] = tested on: K-562 leukemia
[29] = tested on: MDA-MB-231 breast
[30] = tested on: MDA-MB-435
[31] = tested on: T-47D breast
[32] = tested on: MOLT-4 leukemia
[33] = tested on: COLO 205 colon
[34] = tested on: HL-60(TB) leukemia
[35] = tested on: SF-295 CNS
[36] = tested on: SF-539 CNS
[37] = tested on: CAKI-1 renal
[38] = tested on: KM12 colon
[39] = tested on: SNB-75 CNS
[40] = tested on: RXF 393 renal
[41] = tested on: HS 578T breast
[42] = tested on: UO-31 renal
[43] = tested on: SW-620 colon
[44] = tested on: NCI/ADR-RES ovarian
[45] = tested on: BT-549 breast
[46] = tested on: ACHN renal
[47] = tested on: OVCAR-4 ovarian
[48] = tested on: PC-3 prostate
[49] = tested on: SF-268 CNS
[50] = tested on: CCRF-CEM leukemia
[51] = tested on: M14 melanoma
[52] = tested on: 786-0 renal
[53] = tested on: HCC-2998 colon
[54] = tested on: NCI-H522 lung
[55] = tested on: SK-MEL-2 melanoma
[56] = tested on: NCI-H226 lung
[57] = tested on: HOP-92 NSCLC

CC(=O)c1c(-c2ccco2)c(C#N)c(=S)n(C2OC(CO)C(O)C(O)C2O)c1-c1ccccc1 (stereo not drawn)
85.9 µM: TGI [34]
> 100 µM: TGI [1] | TGI [2] | TGI [3] | TGI [4] | TGI [5] | TGI [6] | TGI [7] | TGI [8] | TGI [9] | TGI [10] | TGI [11] | TGI [12] | TGI [13] | TGI [14] | TGI [15] | TGI [16] | TGI [17] | TGI [18] | TGI [19] | TGI [20] | TGI [21] | TGI [22] | TGI [23] | TGI [24] | TGI [26] | TGI [27] | TGI [28] | TGI [29] | TGI [30] | TGI [31] | TGI [32] | TGI [33] | TGI [35] | TGI [36] | TGI [37] | TGI [38] | TGI [39] | TGI [40] | TGI [41] | TGI [42] | TGI [43] | TGI [44] | TGI [45] | TGI [46] | TGI [47] | TGI [48] | TGI [49] | TGI [50] | TGI [51]
59.7 µM: TGI [25]

CC(C)(Oc1ccc(Cl)cc1)C(=O)NC1C2CC3CC1CC(NS(C)(=O)=O)(C3)C2 (stereo not drawn)
58.8 µM: TGI [34]
68.1 µM: TGI [6]
80.1 µM: TGI [51]
69.1 µM: TGI [57]
84.6 µM: TGI [32]
83.2 µM: TGI [45]
58.9 µM: TGI [4]
inactive: GI50 [1] > 100 µM | GI50 [52] 37.4 µM | GI50 [2] > 100 µM | GI50 [3] > 100 µM | GI50 [4] 18.5 µM | GI50 [6] 20.9 µM | GI50 [53] > 100 µM | GI50 [7] > 100 µM | GI50 [8] > 100 µM | GI50 [54] > 100 µM | GI50 [9] > 100 µM | GI50 [10] > 100 µM | GI50 [11] 26.8 µM | GI50 [12] 24.1 µM | GI50 [13] 55.5 µM | GI50 [14] > 100 µM | GI50 [15] > 100 µM | GI50 [16] > 100 µM | GI50 [17] > 100 µM | GI50 [18] > 100 µM | GI50 [19] > 100 µM | GI50 [20] > 100 µM | GI50 [21] 38.5 µM | GI50 [22] > 100 µM | GI50 [23] > 100 µM | GI50 [24] > 100 µM | GI50 [25] > 100 µM | GI50 [55] > 100 µM | GI50 [26] 54.9 µM | GI50 [27] 68.4 µM | GI50 [28] 34.3 µM | GI50 [29] 66.8 µM | GI50 [30] > 100 µM | GI50 [31] > 100 µM | GI50 [32] 20.7 µM | GI50 [33] > 100 µM | GI50 [34] 22.7 µM | GI50 [35] > 100 µM | GI50 [36] 37.5 µM | GI50 [37] > 100 µM | GI50 [38] > 100 µM | GI50 [39] 42.8 µM | GI50 [41] 33.2 µM | GI50 [42] > 100 µM | GI50 [43] > 100 µM | GI50 [44] > 100 µM | GI50 [45] 29.1 µM | GI50 [46] 27.4 µM | GI50 [47] 23.3 µM | GI50 [48] 30.7 µM | GI50 [49] > 100 µM | GI50 [50] 39.1 µM | GI50 [56] > 100 µM | GI50 [57] 19 µM | GI50 [51] 26.2 µM
> 100 µM: TGI [1] | TGI [52] | TGI [2] | TGI [3] | TGI [53] | TGI [7] | TGI [8] | TGI [54] | TGI [9] | TGI [10] | TGI [11] | TGI [12] | TGI [13] | TGI [14] | TGI [15] | TGI [16] | TGI [17] | TGI [18] | TGI [19] | TGI [20] | TGI [21] | TGI [22] | TGI [23] | TGI [24] | TGI [25] | TGI [55] | TGI [26] | TGI [27] | TGI [28] | TGI [29] | TGI [30] | TGI [31] | TGI [33] | TGI [35] | TGI [36] | TGI [37] | TGI [38] | TGI [39] | TGI [41] | TGI [42] | TGI [43] | TGI [44] | TGI [46] | TGI [47] | TGI [48] | TGI [49] | TGI [50] | TGI [56]

CCN(CC)CCn1c(N)c(-c2nc3ccccc3n2C)c2nc(C#N)c(C#N)nc21
12.8 µM: TGI [1]
12.1 µM: TGI [57]
16.2 µM: TGI [2]
4.06 µM: TGI [18]
9.43 µM: TGI [36]
4.46 µM: TGI [40]
> 21.8 µM: TGI [43]
9.91 µM: TGI [47]
20.5 µM: TGI [10]
11.7 µM: TGI [41]
18.3 µM: TGI [45]
8.86 µM: TGI [44]
15 µM: TGI [12]
> 18.5 µM: TGI [21]
22.4 µM: TGI [49]
37.9 µM: TGI [50]
11.2 µM: TGI [37]
14.3 µM: TGI [23] | TGI [26]
7.31 µM: TGI [16]
2.91 µM: TGI [52]
> 27.1 µM: TGI [14]
14.2 µM: TGI [3] | TGI [8]
1.41 µM: TGI [53]
15.6 µM: TGI [35]
12.7 µM: TGI [27]
21.5 µM: TGI [25]
active: GI50 [29] 0.295 µM
inactive: GI50 [1] 3.04 µM | GI50 [52] 1.01 µM | GI50 [2] 1.7 µM | GI50 [3] 3.09 µM | GI50 [4] 12.2 µM | GI50 [5] 2.23 µM | GI50 [6] 1.97 µM | GI50 [53] 0.696 µM | GI50 [7] 3.08 µM | GI50 [8] 7.16 µM | GI50 [54] 3.72 µM | GI50 [9] 3.43 µM | GI50 [10] 7.1 µM | GI50 [11] 0.6 µM | GI50 [12] 3.44 µM | GI50 [14] 5.9 µM | GI50 [15] 4.58 µM | GI50 [16] 1.52 µM | GI50 [17] 3.93 µM | GI50 [18] 1.27 µM | GI50 [19] 0.97 µM | GI50 [21] 1.94 µM | GI50 [22] 2.65 µM | GI50 [23] 5.21 µM | GI50 [24] 3.2 µM | GI50 [25] 7.3 µM | GI50 [55] 6.28 µM | GI50 [26] 1.3 µM | GI50 [27] 3.96 µM | GI50 [28] 3.31 µM | GI50 [30] 6.23 µM | GI50 [31] 1.68 µM | GI50 [32] 1.81 µM | GI50 [33] 3.84 µM | GI50 [34] 2.84 µM | GI50 [35] 5.62 µM | GI50 [36] 2.8 µM | GI50 [37] 3.7 µM | GI50 [38] 5.65 µM | GI50 [40] 1.98 µM | GI50 [41] 2.52 µM | GI50 [42] 2.06 µM | GI50 [43] 2.59 µM | GI50 [44] 3.1 µM | GI50 [45] 7.64 µM | GI50 [46] 0.696 µM | GI50 [47] 1.86 µM | GI50 [48] 1.8 µM | GI50 [49] 3.64 µM | GI50 [50] 4.25 µM | GI50 [56] 9.57 µM | GI50 [57] 2.5 µM | GI50 [51] 7.21 µM
> 28.1 µM: TGI [33]
3.02 µM: TGI [11]
> 42.2 µM: TGI [28]
24.9 µM: TGI [54]
> 50 µM: TGI [4] | TGI [7] | TGI [34]
13 µM: TGI [17]
20.3 µM: TGI [38]
2.62 µM: TGI [19]
11 µM: TGI [22]
13.7 µM: TGI [24]
6.61 µM: TGI [42]
11.1 µM: TGI [32]
> 32.4 µM: TGI [30]
> 19.5 µM: TGI [48]
39.8 µM: TGI [56]
13.8 µM: TGI [9]
> 12.1 µM: TGI [6]
30.8 µM: TGI [51]
25.6 µM: TGI [55]
1.71 µM: TGI [29]
38.5 µM: TGI [15]
10.3 µM: TGI [5]
1.53 µM: TGI [46]
